Reference: paper doi:10.1101/2024.11.24.625011v1 (biorxiv, 2024)

Target: T1, RetSDISMED2 (PaRetSp); RetS (residues 41-185) (Pseudomonas aeruginosa, UniProt Q9HUV7)
T1 sequence (Q9HUV7 41-185): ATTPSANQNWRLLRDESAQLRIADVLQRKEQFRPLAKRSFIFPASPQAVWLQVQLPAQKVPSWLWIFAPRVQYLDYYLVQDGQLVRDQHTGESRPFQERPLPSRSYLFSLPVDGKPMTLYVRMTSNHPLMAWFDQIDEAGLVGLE
Assay: isothermal titration calorimetry
Type: binding

| Kd [µM] | SMILES |
| --- | --- |
| ~1 | NC[C@H](O)c1ccc(O)c(O)c1 [norepinephrine] |
| ~3.6 | CCCCc1oc2ccc(NS(C)(=O)=O)cc2c1C(=O)c1ccc(OCCCN(CCCC)CCCC)cc1 [dronedarone] |
